Data set [1] has as its system human hepatoma cell line Hep-G2. Briefly: Cytotoxicity towards tumour cells in vitro (Cell Titer 96 formazane colorimetric assay). Particulars: 48 h, percentage inhibition of the formation of formazane relative to the control. The data set is classed as cell-based. As to the method: The cytotoxicity of some compounds described in the preceding Examples was evaluated in vitro on human hepatoma cell line Hep-G2, by means of a commercial colorimetric method (Cell Titer 96® Aque ous One Solution Cell Proliferation Assay—Promega); the method determines the number of viable cells on the basis of their capacity to metabolise a tetrazolium salt producing formazane. The quantity of formazane produced is proportional to the number of viable cells.
The Hep-G2 cells are distributed 96 well microplates at a density of 4×10^4 cells/well (100 μl), in M199 medium containing 10% foetal bovine serum and supplements (complete medium).
After 24 hours' incubation (37° C., 5% CO2, 90% humidity), the cells are washed once and the medium is replenished with 200 μl of complete medium containing the substances to be tested at the final concentration of 10^−5, 10^−6 and 10^−7M. The test is performed in triplicate.
The plates are incubated for a further 48 h, at the end of which 100 μl of medium are removed and 20 μl/well of staining solution are added in accordance with the supplier's instructions. Optical density (λ=490 nm) is read after 1 hour's incubation at 37° C. using a plate reader (Victor2—Wallac Perkin Elmer).

Data set [2] has as its system TNFα production by peripheral blood mononucleocytes stimulated with LPS. Briefly: Inhibition of TNFα production by human monocytes stimulated with LPS. The format is cell-based. The following applies: LPS 10 ng/ml, 24 hours, ELISA. Here is the method:
The compounds were dissolved in DMSO at a final concentration of 10 mM.
The solutions for the assay were prepared by diluting the mother solutions in RPMI 1640 with the addition of 1% FCS and 0.01% DMSO and were filtered with 0.2 μm filters.
The peripheral blood mononucleocytes were obtained from blood from healthy donors by separation in a Ficoll-Hypaque gradient [C. G. Figdor, et al. Blood, 1982, 60: 46-53]. The cells were sown in 96-well plates, at a concentration of approx. 500,000 cells per well, suspended in RPMI 1640 containing 1% FCS and were incubated at 37° C. in the presence of different concentrations (from 10^−6 to 10^−11M) of the compounds to be investigated. After 1 hour, LPS was added (at a final concentration of 10 ng/ml; obtained from E. coli 055:B5) and the plates were incubated at 37° C. for a further 24 hours. At the end of this period, the supernatants were collected and used for the determination of TNFα content by means of ELISA (DuoSet ELISA kit; R&D Systems, Minneapolis, Minn., USA).
The concentration of TNFα was calculated using a calibration curve and the IC50 values (the concentration which brings about 50% inhibition of the production of the cytokine) were calculated from the curve obtained by plotting the percentage inhibition values for each individual concentration of the compound under investigation.

The IC50 is the concentration that gives 50% inhibition. Higher therefore signals lower potency. As for `O=C(NO)c1ccc(NC(=O)[C@H](Cc2ccc(O)cc2)NC(=O)c2ccccc2)cc1` [Example 2k, 4-[2(S)-Benzoylamino-3-(4-hydroxy-phenyl)-propionylamino]-N-hydroxy-benzamide], in data set [1], the “Cytotoxicity at 10^−5 M” value is on record as 54.4% and the “Cytotoxicity at 10^−6 M” value is recorded as 27.7%. For the same compound, the IC50 in data set [2] (Monocyte) was 148 nM.

For the compound `O=C(NO)c1ccc(NC(=O)[C@H](Cc2ccccc2)NC(=O)c2ccccc2)cc1` [Example 2h, 4-(2(S)-Benzoylamino-3-phenyl-propionylamino)-N-hydroxy-benzamide], in data set [1], the “Cytotoxicity at 10^−5 M” value is on record as 77.4% and the “Cytotoxicity at 10^−6 M” value was determined as 31.2%. Moreover, the midpoint of inhibition in data set [2] (Monocyte), the IC50, lay at 11.3 nM.

For `CC(=O)N[C@H](C(=O)Nc1ccc(C(=O)NO)cc1)C1Cc2ccccc2C1` [Example 2c, 4-(2(S)-Acetylamino-2-indan-2-yl-acetylamino)-N-hydroxy-benzamide], in data set [1], the “Cytotoxicity at 10^−5 M” value came out at 78.3% and the “Cytotoxicity at 10^−6 M” value amounted to 28.5%. Moreover, in data set [2] (Monocyte), 55.9 nM corresponded to half-maximal inhibition (IC50).

For the compound `O=C(NO)c1ccc(NC(=O)[C@@H](Cc2ccc3ccccc3c2)NC(=O)c2ccc3ccccc3c2)cc1` [Example 2v, N-[1(R)-(4-hydroxycarbamoyl-phenylcarbamoyl)-2-naphthalen-2-yl-ethyl]-amide of naphthalene-2-carboxylic acid], in data set [1], the “Cytotoxicity at 10^−5 M” value is reported as 69.4% and the “Cytotoxicity at 10^−6 M” value stood at 11.8%. In addition, in data set [2], the IC50 was found to be 16.8 nM.
